Measurements published in publication PMC3500254, “Potent Inhibition of Late Stages of Hepadnavirus Replication by a Modified Cell Penetrating Peptide” (PLoS ONE, 2012).
Where two headings read alike, the source gives them in different places. Non-standard residues stand in square brackets, D forms with d. Residues, ends and D or L forms follow the SMILES beside them. *: point of attachment. Stearoyl = CCCCCCCCCCCCCCCCCC(=O)*; Palmitoyl = CCCCCCCCCCCCCCCC(=O)*; Myristoyl = CCCCCCCCCCCCCC(=O)*; Lauroyl = CCCCCCCCCCCC(=O)*; Decanoyl = CCCCCCCCCC(=O)*; Octanoyl = CCCCCCCC(=O)*

Tests used:
[1] = system: Duck Hepatitis B Virus (DHBV); test: Inhibition of DHBV release in stably DHBV-transfected LMH-D2 cells (dot-blot of supernatant DHBV DNA); format: cell-based; details: concentration of CPP resulting in 50% inhibition of DHBV release, peptide added daily, PhosphorImager
Method: (§1) Infected PDH and LMH-D2 cells were treated with 2 µM of several modified cationic peptides for 5 days. Cells supernatants were collected daily and were spotted onto positively charged nylon membrane and DHBV DNA was detected by hybridization with a DHBV DNA probe labeled with ^32P, and then was quantified by PhosphorImager scanning using ImageQuant software (Molecular Dynamics) to monitor DHBV release. Relative areas under curves determined by the means of duplicate, compared to untreated cells set at 100% are represented. […] Cell viability was determined by enzymatic activity MTT assay after daily incubation with different concentrations of Deca-(Arg)8 ranking from 1 µM to 4 µM during six days. The error bars display the standard deviation of duplicates in three independent experiments.
(§2) DHBV-infected PDHs (A), and stable transfected LMH-D2 cells (B) were treated with increasing amounts of Deca-(Arg)8 ranking from 0.25 µM to 2 µM in duplicates for 6 and 4 days, respectively. Cell culture supernatants were collected daily during treatment. The kinetics of viral release in cell culture supernatants, monitored by dot-blot hybridization and quantified by PhosphorImager scanning using ImageQuant software (Molecular Dynamics) is represented on the upper panel. Relative areas under curves determined by the means of duplicate, compared to untreated cells, are represented in the lower panel. The curves are representative of at least two independent experiments.
(§3) Primary duck hepatocytes (PDH) were isolated from Pekin duck embryos as previously described. DHBV infection was performed at the same time as plating by overnight incubation (16 h) of the hepatocytes with a virus-positive duck serum (30 virus genome equivalents (vge) per cell). The previously described avian hepatoma DHBV transfected LMH-D2 cell line, [38] was grown as previously described. The stably HBV-transfected cell line HepG2.2.15 was grown as previously described. Different amounts of CatLip were added daily to the culture medium from day 1 post-seeding and cells were lyzed at the end of treatment for analysis of intracellular viral DNA, RNA, and proteins. The growth medium was harvested and changed daily. The cellular toxicity was analyzed by daily examination of cells with a light microscope and by a cell toxicity test based on the (3-(4,5-dimethylthiazol-2-yl)-2,5 diphenyl-tetrazolium-bromide (MTT) assay.
(§4) Cells supernatants were harvested daily, spotted onto positively charged nylon membrane and extracellular DHBV DNA was detected in supernatant of cells by dot blot hybridization assay using a full-length ^32P-labelled DHBV probe as described previously. For DHBV intermediate replicative forms analysis, DNA was extracted from cells and 10 µg of the total cellular DNA were subjected to electrophoresis on 1% agarose gel, followed by Southern blot analysis and hybridization with ^32P-labeled genomic DHBV probe as previously described. Viral DNA was quantified by PhosphorImager scanning using ImageQuant software (Molecular Dynamics).

[2] = system: Duck Hepatitis B Virus (DHBV)
Method: as §1, §2, §3, §4

[3] = system: LMH-D2 cells; format: cell-based, avian; details: daily exposure 1 µM to 4 µM for 6 days, duplicates in three independent experiments
Method: (§5) Figure 1 Inhibition of DHBV release in PDHs and LMH-D2 cells by modified cationic peptides and effect of Deca-(Arg)8 on cell viability. Infected PDH and LMH-D2 cells were treated with 2 µM of several modified cationic peptides for 5 days. […] Relative areas under curves determined by the means of duplicate, compared to untreated cells set at 100% are represented. The two representations show the effect of modified cationic peptides derived from (Arg)8 sequence with increasing number of arginine in the peptide (A) or with increasing number of carbon in the fatty acid chain (B). Dose-dependent effects of Deca-(Arg)8 transduction on cell viability (C). Cell viability was determined by enzymatic activity MTT assay after daily incubation with different concentrations of Deca-(Arg)8 ranking from 1 µM to 4 µM during six days. The error bars display the standard deviation of duplicates in three independent experiments. […]
(§6) Primary duck hepatocytes (PDH) were isolated from Pekin duck embryos as previously described. […] The cellular toxicity was analyzed by daily examination of cells with a light microscope and by a cell toxicity test based on the (3-(4,5-dimethylthiazol-2-yl)-2,5 diphenyl-tetrazolium-bromide (MTT) assay.

[4] = system: PDH; test: MTT cell viability, PDH; format: cell-based, Pekin duck; details: daily exposure 1 µM to 4 µM for 6 days, duplicates in three independent experiments
Method: as §5, §6

[5] = system: PDH; details: 24 hours at 37°C, 5% CO2, fluorescence microscopy; for FITC-labelled cells (internalization): 0.5 µM; for percentage of FITC-labelled cells: 2 µM
Method: Next we analyzed cellular internalization of Deca-(Arg)8-FITC and Arg8-FITC in PDH cells using fluorescence microscopy.
(A); PDHs were plated and treated with (Arg)8 (left panel) or Deca-(Arg)8 (right panel) coupled to FITC at different concentration ranking from 0.5 µM to 2 µM and cells were incubated at 37°c, 5% of CO2 for 24 hours. Cells were observed by fluorescence microscopy (Magnificationx20).

## N=C(N)NCCC[C@@H](NC(=O)[C@H](N)Cc1c[nH]c2ccccc12)C(=O)N[C@H](CCCNC(=N)N)C(=O)N[C@H](CCCNC(=N)N)C(=O)N[C@H](CCCNC(=N)N)C(=O)N[C@H](CCCNC(=N)N)C(=O)N[C@H](CCCNC(=N)N)C(=O)N[C@H](CCCNC(=N)N)C(=O)N[C@H](CCCNC(=N)N)C(=O)NCC(N)=O [(Arg)8] (H-[dW][dR][dR][dR][dR][dR][dR][dR][dR]G-NH2)
[1]
  IC50: 1300 nM
[2]; 5-days treatment, (Arg)8 0.5 to 2 µM, compared with Deca-(Arg)8, Fig. S2 (PDH and LMH-D2; cell system not given)
  inhibition of DHBV secretion: 60%
[2]; 16 h
  IC50: 1800 nM

## CCCCCCCCCC(=O)N[C@H](Cc1c[nH]c2ccccc12)C(=O)N[C@H](CCCNC(=N)N)C(=O)N[C@H](CCCNC(=N)N)C(=O)N[C@H](CCCNC(=N)N)C(=O)N[C@H](CCCNC(=N)N)C(=O)N[C@H](CCCNC(=N)N)C(=O)N[C@H](CCCNC(=N)N)C(=O)NCC(N)=O [Deca-(Arg)6]
[1]
  IC50: 2200 nM
[2]; read-out: IC50 of DHBV release, PDH, DHBV-infected PDH, concentration of CPP resulting in 50% inhibition of DHBV release, peptide added daily, supernatant DHBV DNA by dot-blot, 32P probe, PhosphorImager
  IC50: 1400 nM

## CCCCCCCCCC(=O)N[C@H](Cc1c[nH]c2ccccc12)C(=O)N[C@H](CCCNC(=N)N)C(=O)N[C@H](CCCNC(=N)N)C(=O)N[C@H](CCCNC(=N)N)C(=O)N[C@H](CCCNC(=N)N)C(=O)N[C@H](CCCNC(=N)N)C(=O)N[C@H](CCCNC(=N)N)C(=O)N[C@H](CCCNC(=N)N)C(=O)NCC(N)=O [Deca-(Arg)7]
[1]
  IC50: 800 nM
[2]; 16 h
  IC50: 900 nM

## CCCCCCCCCC(=O)N[C@H](Cc1c[nH]c2ccccc12)C(=O)N[C@H](CCCNC(=N)N)C(=O)N[C@H](CCCNC(=N)N)C(=O)N[C@H](CCCNC(=N)N)C(=O)N[C@H](CCCNC(=N)N)C(=O)N[C@H](CCCNC(=N)N)C(=O)N[C@H](CCCNC(=N)N)C(=O)N[C@H](CCCNC(=N)N)C(=O)N[C@H](CCCNC(=N)N)C(=O)NCC(N)=O [Deca-(Arg)8] (Decanoyl-[dW][dR][dR][dR][dR][dR][dR][dR][dR]G-NH2)
[1]
  IC50: 300 nM
[3]
  cell viability (MTT) versus untreated cells: No statistically significant difference
[2]; 16 h
  IC50: 600 nM
[4]
  cell viability (MTT) versus untreated cells: No statistically significant difference

## CCCCCCCCCC(=O)N[C@H](Cc1c[nH]c2ccccc12)C(=O)N[C@H](CCCNC(=N)N)C(=O)N[C@H](CCCNC(=N)N)C(=O)N[C@H](CCCNC(=N)N)C(=O)N[C@H](CCCNC(=N)N)C(=O)N[C@H](CCCNC(=N)N)C(=O)N[C@H](CCCNC(=N)N)C(=O)N[C@H](CCCNC(=N)N)C(=O)N[C@H](CCCNC(=N)N)C(=O)N[C@H](CCCNC(=N)N)C(=O)NCC(N)=O [Deca-(Arg)9] (Decanoyl-[dW][dR][dR][dR][dR][dR][dR][dR][dR][dR]G-NH2)
[2]; 16 h
  IC50: 1600 nM

## CCCCCCCCCC(=O)N[C@H](Cc1c[nH]c2ccccc12)C(=O)N[C@H](CCCNC(=N)N)C(=O)N[C@H](CCCNC(=N)N)C(=O)N[C@H](CCCNC(=N)N)C(=O)N[C@H](CCCNC(=N)N)C(=O)N[C@H](CCCNC(=N)N)C(=O)N[C@H](CCCNC(=N)N)C(=O)N[C@H](CCCNC(=N)N)C(=O)N[C@H](CCCNC(=N)N)C(=O)N[C@H](CCCNC(=N)N)C(=O)N[C@H](CCCNC(=N)N)C(=O)NCC(N)=O [Deca-(Arg)10]
[2]; 16 h
  IC50: 1400 nM

## CCCCCCCCCC(=O)N[C@H](CCCNC(=N)N)C(=O)N[C@H](CCCNC(=N)N)C(=O)N[C@H](CCCNC(=N)N)C(=O)N[C@H](CCCNC(=N)N)C(=O)N[C@H](CCCCN)C(=O)N[C@H](CCCCN)C(=O)N[C@H](CCCCN)C(=O)N[C@H](CCCCN)C(=O)NCC(N)=O [Deca-(Arg-Lys)4–4] (Decanoyl-[dR][dR][dR][dR][dK][dK][dK][dK]G-NH2)
[2]; 16 h
  IC50: 2300 nM

## CCCCCCCCCCCC(=O)N[C@H](Cc1c[nH]c2ccccc12)C(=O)N[C@H](CCCNC(=N)N)C(=O)N[C@H](CCCNC(=N)N)C(=O)N[C@H](CCCNC(=N)N)C(=O)N[C@H](CCCNC(=N)N)C(=O)N[C@H](CCCNC(=N)N)C(=O)N[C@H](CCCNC(=N)N)C(=O)N[C@H](CCCNC(=N)N)C(=O)N[C@H](CCCNC(=N)N)C(=O)NCC(N)=O [Dodeca-(Arg)8] (Lauroyl-[dW][dR][dR][dR][dR][dR][dR][dR][dR]G-NH2)
[1]
  IC50: 700 nM
[2]; 16 h
  IC50: 900 nM

## CCCCCCCCCCCCCC(=O)N[C@H](Cc1c[nH]c2ccccc12)C(=O)N[C@H](CCCNC(=N)N)C(=O)N[C@H](CCCNC(=N)N)C(=O)N[C@H](CCCNC(=N)N)C(=O)N[C@H](CCCNC(=N)N)C(=O)N[C@H](CCCNC(=N)N)C(=O)N[C@H](CCCNC(=N)N)C(=O)N[C@H](CCCNC(=N)N)C(=O)N[C@H](CCCNC(=N)N)C(=O)NCC(N)=O [Myrist-(Arg)8] (Myristoyl-[dW][dR][dR][dR][dR][dR][dR][dR][dR]G-NH2)
[1]
  IC50: 1200 nM
[2]; 16 h
  IC50: 1200 nM

## CCCCCCCC(=O)N[C@H](Cc1c[nH]c2ccccc12)C(=O)N[C@H](CCCNC(=N)N)C(=O)N[C@H](CCCNC(=N)N)C(=O)N[C@H](CCCNC(=N)N)C(=O)N[C@H](CCCNC(=N)N)C(=O)N[C@H](CCCNC(=N)N)C(=O)N[C@H](CCCNC(=N)N)C(=O)N[C@H](CCCNC(=N)N)C(=O)N[C@H](CCCNC(=N)N)C(=O)NCC(N)=O [Octa-(Arg)8] (Octanoyl-[dW][dR][dR][dR][dR][dR][dR][dR][dR]G-NH2)
[1]
  IC50: 2700 nM
[2]; 16 h
  IC50: 1700 nM

## CCCCCCCCCCCCCCCC(=O)N[C@H](Cc1c[nH]c2ccccc12)C(=O)N[C@H](CCCNC(=N)N)C(=O)N[C@H](CCCNC(=N)N)C(=O)N[C@H](CCCNC(=N)N)C(=O)N[C@H](CCCNC(=N)N)C(=O)N[C@H](CCCNC(=N)N)C(=O)N[C@H](CCCNC(=N)N)C(=O)N[C@H](CCCNC(=N)N)C(=O)N[C@H](CCCNC(=N)N)C(=O)NCC(N)=O [Palmit-(Arg)8] (Palmitoyl-[dW][dR][dR][dR][dR][dR][dR][dR][dR]G-NH2)
[1]
  IC50: 1700 nM
[2]; 16 h
  IC50: 1800 nM

## CCCCCCCCCCCCCCCCCC(=O)N[C@H](Cc1c[nH]c2ccccc12)C(=O)N[C@H](CCCNC(=N)N)C(=O)N[C@H](CCCNC(=N)N)C(=O)N[C@H](CCCNC(=N)N)C(=O)N[C@H](CCCNC(=N)N)C(=O)N[C@H](CCCNC(=N)N)C(=O)N[C@H](CCCNC(=N)N)C(=O)N[C@H](CCCNC(=N)N)C(=O)N[C@H](CCCNC(=N)N)C(=O)NCC(N)=O [Stear-(Arg)8] (Stearoyl-[dW][dR][dR][dR][dR][dR][dR][dR][dR]G-NH2)
[1]
  IC50: 1800 nM
[2]; 16 h
  IC50: 1900 nM

## CCCCCCCCCC(=O)O [decanoic acid, reference compound]
[2]; 5-days treatment, decanoic acid 0.5 to 10 µM, Fig. S2 (PDH and LMH-D2)
  effect on DHBV secretion: unable to significantly decrease DHBV secretion

## Decanoic acid (C10:0)-Fluoresceinyl-lysine–RRRRRRRRG-NH2 [Deca-(Arg)8-FITC]
[5]
  FITC-labelled cells (internalization): a higher number of FITC-labelled cells were observable
  percentage of FITC-labelled cells: more than 90%

## Fluoresceinyl-lysine-RRRRRRRRG-NH2 [(Arg)8-FITC]
[5]
  FITC-labelled cells (internalization): remained negative
  percentage of FITC-labelled cells: 70%
